How the values were obtained:
EPHA1 = molecular target: T1, EPHA1 (Homo sapiens, UniProt P21709); assay: Off-chip Mobility Shift Assay, kinase inhibition; type: biochemical; conditions: at 10 nM; recombinant EPHA1
T1 construct: purchased Carna Biosciences, Inc
T1 sequence (P21709 26-976): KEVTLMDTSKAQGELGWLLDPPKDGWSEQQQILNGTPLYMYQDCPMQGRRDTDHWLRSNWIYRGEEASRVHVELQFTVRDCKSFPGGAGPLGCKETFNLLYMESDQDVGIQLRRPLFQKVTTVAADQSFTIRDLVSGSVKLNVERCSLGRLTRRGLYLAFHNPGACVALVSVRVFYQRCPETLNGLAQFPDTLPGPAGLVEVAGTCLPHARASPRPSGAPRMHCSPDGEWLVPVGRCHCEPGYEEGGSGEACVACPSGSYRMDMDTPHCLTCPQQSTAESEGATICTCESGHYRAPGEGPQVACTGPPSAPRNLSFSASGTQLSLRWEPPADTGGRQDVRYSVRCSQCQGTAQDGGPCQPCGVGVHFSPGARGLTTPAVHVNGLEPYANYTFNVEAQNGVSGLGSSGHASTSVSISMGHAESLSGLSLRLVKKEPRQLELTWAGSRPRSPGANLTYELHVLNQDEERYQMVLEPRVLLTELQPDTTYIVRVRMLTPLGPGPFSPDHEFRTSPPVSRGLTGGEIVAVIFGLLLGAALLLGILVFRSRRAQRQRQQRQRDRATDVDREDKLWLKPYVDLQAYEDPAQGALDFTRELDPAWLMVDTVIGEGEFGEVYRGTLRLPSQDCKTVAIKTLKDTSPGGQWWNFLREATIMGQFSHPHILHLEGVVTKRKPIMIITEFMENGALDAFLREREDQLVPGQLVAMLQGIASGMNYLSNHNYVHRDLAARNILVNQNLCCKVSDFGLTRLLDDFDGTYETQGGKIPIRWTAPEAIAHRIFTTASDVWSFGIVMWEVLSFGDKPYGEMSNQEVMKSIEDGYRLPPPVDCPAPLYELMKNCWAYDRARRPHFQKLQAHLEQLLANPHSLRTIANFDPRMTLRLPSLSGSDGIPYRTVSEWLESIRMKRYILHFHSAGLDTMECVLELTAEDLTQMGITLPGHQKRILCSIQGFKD

FGR = molecular target: T2, FGR (Homo sapiens, UniProt P09769); assay: Off-chip Mobility Shift Assay, kinase inhibition; type: biochemical; conditions: at 10 nM; recombinant FGR; read-out: inhibition
T2 construct: purchased Carna Biosciences, Inc

LYNa = molecular target: T3, LYNa (Homo sapiens, UniProt P07948); assay: Off-chip Mobility Shift Assay, kinase inhibition; type: biochemical; conditions: recombinant LYNa; for inhibition at 0.001 µM: at 1 nM; for inhibition at 0.01 µM: at 10 nM, read-out: inhibition
T3 construct: purchased Carna Biosciences, Inc

[1] = test system: battery of selected protein kinases; assay: In vitro screen of a battery of selected protein kinases (summary statement); type: biochemical; conditions: BTK, BMX, ABL, ABL(E255K), SRC, ACK, ARG, BLK, DDR2, EPHA, FGR, FMS, FRK, FYN, HCK, LCK, LYN, PDGFRα, PDGFRβ, YES, PIK3CA/PIK3R1, among others
FRK = molecular target: T4, FRK (Homo sapiens, UniProt P42685); assay: Off-chip Mobility Shift Assay, kinase inhibition; type: biochemical; conditions: at 10 nM; recombinant FRK
T4 construct: purchased Carna Biosciences, Inc

HCK = molecular target: T5, HCK (Homo sapiens, UniProt P08631); assay: Off-chip Mobility Shift Assay, kinase inhibition; type: biochemical; conditions: recombinant HCK; for inhibition at 0.001 µM: at 1 nM; for inhibition at 0.01 µM: at 10 nM, read-out: inhibition
T5 construct: purchased Carna Biosciences, Inc

LCK = molecular target: T6, LCK (Homo sapiens, UniProt P06239); assay: Off-chip Mobility Shift Assay, kinase inhibition; type: biochemical; conditions: recombinant LCK; for inhibition at 0.001 µM: at 1 nM; for inhibition at 0.01 µM: at 10 nM
T6 construct: purchased Carna Biosciences, Inc

SRC = molecular target: T7, SRC (Homo sapiens, UniProt P12931); assay: Off-chip Mobility Shift Assay, kinase inhibition; type: biochemical; conditions: recombinant SRC; for inhibition at 0.001 µM: at 1 nM; for inhibition at 0.01 µM: at 10 nM
T7 construct: purchased Carna Biosciences, Inc

ACK = molecular target: T8, ACK (Homo sapiens, UniProt Q07912); assay: Off-chip Mobility Shift Assay, kinase inhibition; type: biochemical; conditions: at 10 nM; recombinant ACK
T8 construct: purchased Carna Biosciences, Inc

Mino = assay: Cell inhibition assay (PrestoBlue, 48 h); type: cell-based; conditions: Homo sapiens, Mino cells, read-out: IC50, inhibition of growth
ABL = molecular target: T9, ABL (Homo sapiens, UniProt P00519); assay: Off-chip Mobility Shift Assay, kinase inhibition; type: biochemical; conditions: recombinant ABL; for inhibition at 0.001 µM: at 1 nM; for inhibition at 0.01 µM: at 10 nM
T9 construct: purchased Carna Biosciences, Inc

FMS = molecular target: T10, FMS (Homo sapiens, UniProt P07333); assay: Off-chip Mobility Shift Assay, kinase inhibition; type: biochemical; conditions: at 10 nM; recombinant FMS
T10 construct: purchased Carna Biosciences, Inc

ABL(E255K) = molecular target: T11, ABL(E255K) (Homo sapiens, UniProt P00519, E255K); assay: Off-chip Mobility Shift Assay, kinase inhibition; type: biochemical; conditions: recombinant ABL(E255K); for inhibition at 0.001 µM: at 1 nM; for inhibition at 0.01 µM: at 10 nM
T11 construct: purchased Carna Biosciences, Inc

DDR2 = molecular target: T12, DDR2 (Homo sapiens, UniProt Q16832); assay: Off-chip Mobility Shift Assay, kinase inhibition; type: biochemical; conditions: at 10 nM; recombinant DDR2; read-out: inhibition
T12 construct: purchased Carna Biosciences, Inc
T12 sequence (Q16832 22-855): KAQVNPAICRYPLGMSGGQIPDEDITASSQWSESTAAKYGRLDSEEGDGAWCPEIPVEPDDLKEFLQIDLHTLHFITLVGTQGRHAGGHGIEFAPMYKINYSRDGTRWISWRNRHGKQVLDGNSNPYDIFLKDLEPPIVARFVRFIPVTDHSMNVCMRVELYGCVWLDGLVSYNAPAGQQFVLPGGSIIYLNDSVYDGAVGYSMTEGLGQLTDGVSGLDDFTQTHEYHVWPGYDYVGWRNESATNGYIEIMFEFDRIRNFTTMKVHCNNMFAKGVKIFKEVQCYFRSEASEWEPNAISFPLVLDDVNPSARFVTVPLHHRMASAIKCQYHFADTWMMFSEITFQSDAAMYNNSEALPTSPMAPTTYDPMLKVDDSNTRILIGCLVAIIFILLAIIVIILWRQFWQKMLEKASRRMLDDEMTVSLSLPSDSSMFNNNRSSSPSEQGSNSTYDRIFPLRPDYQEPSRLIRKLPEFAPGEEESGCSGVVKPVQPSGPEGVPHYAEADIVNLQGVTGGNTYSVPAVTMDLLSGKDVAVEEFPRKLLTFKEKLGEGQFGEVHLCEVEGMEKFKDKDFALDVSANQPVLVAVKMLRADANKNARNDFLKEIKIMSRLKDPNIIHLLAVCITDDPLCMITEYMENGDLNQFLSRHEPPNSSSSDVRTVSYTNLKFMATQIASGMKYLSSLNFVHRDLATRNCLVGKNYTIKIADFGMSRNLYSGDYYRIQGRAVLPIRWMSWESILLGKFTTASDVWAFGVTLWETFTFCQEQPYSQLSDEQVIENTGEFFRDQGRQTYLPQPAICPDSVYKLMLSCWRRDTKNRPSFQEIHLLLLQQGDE

ARG = molecular target: T13, ARG (Homo sapiens, UniProt P42684); assay: Off-chip Mobility Shift Assay, kinase inhibition; type: biochemical; conditions: at 10 nM; recombinant ARG; read-out: inhibition
T13 construct: purchased Carna Biosciences, Inc

T10 sequence (P07333 20-972): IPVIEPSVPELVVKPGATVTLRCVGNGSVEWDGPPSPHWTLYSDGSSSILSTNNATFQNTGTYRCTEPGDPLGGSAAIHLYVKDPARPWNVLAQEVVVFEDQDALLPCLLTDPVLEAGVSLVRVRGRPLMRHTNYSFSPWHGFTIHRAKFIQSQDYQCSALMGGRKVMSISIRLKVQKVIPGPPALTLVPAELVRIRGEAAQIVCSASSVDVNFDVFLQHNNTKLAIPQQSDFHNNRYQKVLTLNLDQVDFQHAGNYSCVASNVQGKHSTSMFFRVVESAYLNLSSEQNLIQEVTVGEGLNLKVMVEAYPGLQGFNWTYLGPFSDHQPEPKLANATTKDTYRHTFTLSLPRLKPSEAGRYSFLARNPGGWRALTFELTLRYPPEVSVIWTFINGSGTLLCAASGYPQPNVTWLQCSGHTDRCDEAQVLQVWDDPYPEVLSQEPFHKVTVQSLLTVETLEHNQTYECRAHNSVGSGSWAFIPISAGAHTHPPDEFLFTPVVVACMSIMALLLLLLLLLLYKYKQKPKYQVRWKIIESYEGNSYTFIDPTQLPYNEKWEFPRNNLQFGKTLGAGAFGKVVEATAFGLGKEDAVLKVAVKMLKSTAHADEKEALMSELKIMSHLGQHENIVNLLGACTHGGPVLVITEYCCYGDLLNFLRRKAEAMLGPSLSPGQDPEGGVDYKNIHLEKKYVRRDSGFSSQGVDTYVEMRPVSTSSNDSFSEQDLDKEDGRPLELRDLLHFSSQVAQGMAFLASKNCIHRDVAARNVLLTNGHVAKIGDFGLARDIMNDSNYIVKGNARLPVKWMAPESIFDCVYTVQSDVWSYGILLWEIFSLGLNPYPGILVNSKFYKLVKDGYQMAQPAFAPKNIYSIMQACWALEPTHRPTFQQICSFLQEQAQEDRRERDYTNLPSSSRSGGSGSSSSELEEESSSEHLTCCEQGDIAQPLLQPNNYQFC
T5 sequence (P08631 whole entry): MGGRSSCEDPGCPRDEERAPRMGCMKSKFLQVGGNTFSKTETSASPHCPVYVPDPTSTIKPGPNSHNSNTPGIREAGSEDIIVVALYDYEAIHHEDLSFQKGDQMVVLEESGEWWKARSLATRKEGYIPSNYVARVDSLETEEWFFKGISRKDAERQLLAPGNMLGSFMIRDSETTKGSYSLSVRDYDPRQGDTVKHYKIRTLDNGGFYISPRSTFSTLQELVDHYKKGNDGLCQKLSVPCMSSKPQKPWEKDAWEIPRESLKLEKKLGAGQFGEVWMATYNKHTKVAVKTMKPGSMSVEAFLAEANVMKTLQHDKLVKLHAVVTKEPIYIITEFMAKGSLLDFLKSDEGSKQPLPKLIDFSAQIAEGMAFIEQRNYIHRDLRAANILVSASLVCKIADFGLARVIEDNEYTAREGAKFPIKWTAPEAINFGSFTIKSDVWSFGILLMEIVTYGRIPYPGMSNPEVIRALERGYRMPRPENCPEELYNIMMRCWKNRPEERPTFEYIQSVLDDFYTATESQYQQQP
T9 sequence (P00519 whole entry): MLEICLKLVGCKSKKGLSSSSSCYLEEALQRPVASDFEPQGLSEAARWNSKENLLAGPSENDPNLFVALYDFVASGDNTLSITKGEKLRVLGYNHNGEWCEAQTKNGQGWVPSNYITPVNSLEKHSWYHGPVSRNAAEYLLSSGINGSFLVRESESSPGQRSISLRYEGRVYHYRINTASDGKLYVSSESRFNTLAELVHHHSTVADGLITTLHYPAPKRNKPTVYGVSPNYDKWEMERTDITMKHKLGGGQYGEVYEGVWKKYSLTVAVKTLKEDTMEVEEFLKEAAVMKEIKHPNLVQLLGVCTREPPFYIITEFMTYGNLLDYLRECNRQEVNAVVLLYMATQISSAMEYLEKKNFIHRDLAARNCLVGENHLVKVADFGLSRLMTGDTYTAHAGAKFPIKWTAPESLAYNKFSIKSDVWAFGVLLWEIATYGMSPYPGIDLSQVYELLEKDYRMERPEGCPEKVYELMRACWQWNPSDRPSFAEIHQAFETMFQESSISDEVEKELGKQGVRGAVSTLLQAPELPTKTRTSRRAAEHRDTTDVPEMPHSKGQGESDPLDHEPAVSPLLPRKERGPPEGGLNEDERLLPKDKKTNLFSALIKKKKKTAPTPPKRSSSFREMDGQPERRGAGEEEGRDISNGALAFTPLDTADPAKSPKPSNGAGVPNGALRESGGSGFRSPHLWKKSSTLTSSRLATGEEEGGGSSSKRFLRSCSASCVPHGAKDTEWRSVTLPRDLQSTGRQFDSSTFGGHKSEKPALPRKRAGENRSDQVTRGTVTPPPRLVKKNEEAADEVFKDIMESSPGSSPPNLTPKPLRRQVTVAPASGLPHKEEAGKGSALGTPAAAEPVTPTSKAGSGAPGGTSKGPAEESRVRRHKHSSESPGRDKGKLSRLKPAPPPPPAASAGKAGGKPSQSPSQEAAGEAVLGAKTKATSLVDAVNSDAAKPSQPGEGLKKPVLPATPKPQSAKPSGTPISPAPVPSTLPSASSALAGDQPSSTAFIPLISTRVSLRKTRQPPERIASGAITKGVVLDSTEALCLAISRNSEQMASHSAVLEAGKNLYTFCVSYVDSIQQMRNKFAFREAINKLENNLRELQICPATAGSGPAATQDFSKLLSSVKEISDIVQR
T8 sequence (Q07912 whole entry): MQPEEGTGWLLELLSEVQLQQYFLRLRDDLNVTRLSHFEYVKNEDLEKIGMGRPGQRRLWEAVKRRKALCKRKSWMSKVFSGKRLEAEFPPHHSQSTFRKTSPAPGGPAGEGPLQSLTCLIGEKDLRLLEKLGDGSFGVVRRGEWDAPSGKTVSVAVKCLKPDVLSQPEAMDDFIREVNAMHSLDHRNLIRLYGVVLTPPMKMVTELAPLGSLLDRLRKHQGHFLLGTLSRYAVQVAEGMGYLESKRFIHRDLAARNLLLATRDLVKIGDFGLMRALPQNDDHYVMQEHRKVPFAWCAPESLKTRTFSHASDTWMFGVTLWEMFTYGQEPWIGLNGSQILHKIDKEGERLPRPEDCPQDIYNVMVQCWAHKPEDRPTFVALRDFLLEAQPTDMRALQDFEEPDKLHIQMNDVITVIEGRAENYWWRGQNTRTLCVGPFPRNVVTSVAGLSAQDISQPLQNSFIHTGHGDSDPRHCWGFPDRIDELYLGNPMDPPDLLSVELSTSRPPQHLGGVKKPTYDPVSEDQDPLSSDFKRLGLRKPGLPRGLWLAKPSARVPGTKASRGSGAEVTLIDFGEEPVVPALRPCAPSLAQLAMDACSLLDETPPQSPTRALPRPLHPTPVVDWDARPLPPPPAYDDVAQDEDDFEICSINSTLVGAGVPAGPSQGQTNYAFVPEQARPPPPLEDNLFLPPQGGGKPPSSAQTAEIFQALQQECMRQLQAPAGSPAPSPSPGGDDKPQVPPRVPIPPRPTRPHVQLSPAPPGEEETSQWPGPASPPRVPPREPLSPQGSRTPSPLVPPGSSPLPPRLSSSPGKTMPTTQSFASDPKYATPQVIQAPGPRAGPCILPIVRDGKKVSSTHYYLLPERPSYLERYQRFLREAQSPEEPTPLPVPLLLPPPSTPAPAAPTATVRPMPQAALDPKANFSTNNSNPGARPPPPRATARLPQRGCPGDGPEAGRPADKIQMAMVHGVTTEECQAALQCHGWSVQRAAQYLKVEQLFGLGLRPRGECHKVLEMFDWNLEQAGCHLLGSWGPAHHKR
T3 sequence (P07948 whole entry): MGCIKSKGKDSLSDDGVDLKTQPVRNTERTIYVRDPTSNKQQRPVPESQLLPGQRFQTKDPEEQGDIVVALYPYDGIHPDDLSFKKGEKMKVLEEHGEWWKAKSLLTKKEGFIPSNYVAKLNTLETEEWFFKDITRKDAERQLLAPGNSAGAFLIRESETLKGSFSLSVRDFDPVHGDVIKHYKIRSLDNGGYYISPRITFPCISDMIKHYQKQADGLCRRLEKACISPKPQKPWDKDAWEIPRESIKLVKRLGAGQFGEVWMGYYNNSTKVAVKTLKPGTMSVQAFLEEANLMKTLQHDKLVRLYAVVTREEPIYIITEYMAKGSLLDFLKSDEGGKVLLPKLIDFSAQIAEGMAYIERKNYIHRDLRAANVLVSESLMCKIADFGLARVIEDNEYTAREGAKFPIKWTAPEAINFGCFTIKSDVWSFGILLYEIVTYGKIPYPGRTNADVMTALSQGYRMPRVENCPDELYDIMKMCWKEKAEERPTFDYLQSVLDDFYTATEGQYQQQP
T11 sequence (P00519 whole entry E255K): as the sequence (P00519 whole entry) above, with E255K counted along it
T2 sequence (P09769 whole entry): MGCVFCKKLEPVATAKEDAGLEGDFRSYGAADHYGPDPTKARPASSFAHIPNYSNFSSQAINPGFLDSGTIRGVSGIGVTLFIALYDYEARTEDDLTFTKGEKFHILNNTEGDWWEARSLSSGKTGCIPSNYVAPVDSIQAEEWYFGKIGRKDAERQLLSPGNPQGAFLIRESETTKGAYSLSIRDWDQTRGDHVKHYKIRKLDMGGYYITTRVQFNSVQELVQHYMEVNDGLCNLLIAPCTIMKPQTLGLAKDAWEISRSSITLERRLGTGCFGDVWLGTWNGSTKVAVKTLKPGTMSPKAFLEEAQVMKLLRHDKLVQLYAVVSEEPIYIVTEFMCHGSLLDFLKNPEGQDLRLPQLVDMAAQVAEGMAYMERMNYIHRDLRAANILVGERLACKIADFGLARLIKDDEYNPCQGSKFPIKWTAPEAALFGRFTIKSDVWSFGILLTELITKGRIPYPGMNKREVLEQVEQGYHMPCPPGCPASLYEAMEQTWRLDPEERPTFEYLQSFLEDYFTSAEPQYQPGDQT

Structure (SMILES)	inhibition at 0.01 µM (EPHA1) [%]	inhibition at 0.01 µM (FGR) [%]	inhibition at 0.001 µM (LYNa) [%]	inhibition at 0.01 µM (LYNa) [%]	inhibition at 0.01 µM (FRK) [%]	inhibition at 0.001 µM (HCK) [%]	inhibition at 0.01 µM (HCK) [%]	inhibition at 0.001 µM (LCK) [%]	inhibition at 0.01 µM (LCK) [%]	inhibition at 0.001 µM (SRC) [%]	inhibition at 0.01 µM (SRC) [%]	inhibition at 0.01 µM (ACK) [%]	inhibition at 0.001 µM (ABL) [%]	inhibition at 0.01 µM (ABL) [%]	inhibition at 0.01 µM (FMS) [%]	inhibition at 0.001 µM (ABL(E255K)) [%]	inhibition at 0.01 µM (ABL(E255K)) [%]	inhibition at 0.01 µM (DDR2) [%]	activity to inhibit kinases [1]	IC50 (Mino) [nM]	also measured
[2H]c1cc(C)c(NC(=O)c2cnc(Nc3cc(N4CC[C@H](N)C4)nc(C)n3)s2)c(Cl)c1 [Compound VI, N-(2-chloro-4-dutero-6-methylphenyl)-2-[[2-methyl-6-((S)-3-aminopyrrolidin-1-yl)pyrimidin-4-yl]amino]thiazole-5-carboxamide]	> 50	> 50	> 50	> 50	> 50	> 50	> 50	> 50	> 50	> 50	> 50	> 50	> 50	> 50	> 50	> 50	> 50	> 50	potent activity	< 50	inhibition at 0.01 µM (ARG): > 50%
Cc1nc(Nc2ncc(C(=O)Nc3c(C)cccc3Cl)s2)cc(N2CCCCC2)n1 [Compound VIII, N-(2-chloro-6-methylphenyl)-2-[[2-methyl-6-(piperidin-1-yl)pyrimidin-4-yl]amino]thiazole-5-carboxamide]	> 50	> 50	> 50	> 50	> 50	> 50	> 50	> 50	> 50	> 50	> 50	> 50	> 50	> 50	> 50	> 50	> 50	> 50	potent activity	< 50	inhibition at 0.01 µM (ARG): > 50%

Continued, in another order:

inhibition at 0.01 µM (EPHA1) [%]	inhibition at 0.01 µM (FGR) [%]	inhibition at 0.001 µM (LYNa) [%]	inhibition at 0.01 µM (LYNa) [%]	inhibition at 0.01 µM (FRK) [%]	inhibition at 0.001 µM (HCK) [%]	inhibition at 0.01 µM (HCK) [%]	inhibition at 0.001 µM (LCK) [%]	inhibition at 0.01 µM (LCK) [%]	inhibition at 0.001 µM (SRC) [%]	inhibition at 0.01 µM (SRC) [%]	inhibition at 0.01 µM (ACK) [%]	inhibition at 0.001 µM (ABL) [%]	inhibition at 0.01 µM (ABL) [%]	inhibition at 0.01 µM (FMS) [%]	inhibition at 0.001 µM (ABL(E255K)) [%]	inhibition at 0.01 µM (ABL(E255K)) [%]	inhibition at 0.01 µM (DDR2) [%]	Structure (SMILES)	activity to inhibit kinases [1]	IC50 (Mino) [nM]	also measured
> 50	> 50	> 50	> 50	> 50	> 50	> 50	> 50	> 50	> 50	> 50	> 50	> 50	> 50	> 50	> 50	> 50	> 50	[2H]c1cc(C)c(NC(=O)c2cnc(Nc3cc(N4CC[C@@H](N)C4)nc(C)n3)s2)c(Cl)c1 [Compound VII, N-(2-chloro-4-deutero-6-methylphenyl)-2-[[2-methyl-6-((R)-3-aminopyrrolidin-1-yl)pyrimidin-4-yl]amino]thiazole-5-carboxamide]	potent activity	< 50	inhibition at 0.01 µM (ARG): > 50%
> 50	> 50	> 50	> 50	> 50	> 50	> 50	> 50	> 50	> 50	> 50	> 50	> 50	> 50	> 50	> 50	> 50	> 50	Cc1nc(Nc2ncc(C(=O)Nc3c(C)cccc3Cl)s2)cc(N2CC[C@H](O)C2)n1 [Compound X, N-(2-chloro-6-methylphenyl)-2-[[2-methyl-6-((S)-3-hydroxypyrrolidin-1-yl)pyrimidin-4-yl]amino]thiazole-5-carboxamide]	potent activity	< 50	inhibition at 0.01 µM (ARG): > 50%
> 50	> 50	> 50	> 50	> 50	> 50	> 50	> 50	> 50	> 50	> 50	> 50	> 50	> 50	> 50	> 50	> 50	> 50	Cc1nc(Nc2ncc(C(=O)Nc3c(C)cccc3Cl)s2)cc(N2CC[C@@H](O)C2)n1 [Compound XI, N-(2-chloro-6-methylphenyl)-2-[[2-methyl-6-((R)-3-hydroxypyrrolidin-1-yl)pyrimidin-4-yl]amino]thiazole-5-carboxamide]	potent activity	< 50	inhibition at 0.01 µM (ARG): > 50%

— patent publication US10479786B2, “Protein kinase inhibitors” (Princeton Drug Discovery Inc, priority 2016, dated 2019)
